Test results reported in patent US11207312B2, “Metallo-beta-lactamase inhibitors and methods of use thereof” (priority 2017, dated 2021).
Converted amounts (≈) assume the structure as drawn.

Legend:
MB5890 (OprD+, efflux-) = assay: microbe, parasite or virus in culture; assay type: cell-based, Pseudomonas aeruginosa
Source text: (§1) The strain background is Pseudomonas aeruginosa PAO1. A wild-type (M135919) and an isogenic strain in which multiple efflux pumps have been disrupted genetically were used. The MBL IMP-1, obtained from a clinical isolate was introduced into the strain pair by the following process:
(§2) The plasmid DNA was transformed into parental MB5919 (oprD+, efflux+, inducible AmpC) and MB5890 (oprD+, efflux−, inducible AmpC) isogenic strains by electroporation.
(§3) Minimum inhibitory concentrations of sentinel antibiotics were performed to quality control the new strains.

MB5919 (OprD+, efflux+) = assay: microbe, parasite or virus in culture; assay type: cell-based, Pseudomonas aeruginosa
Source text: as §1, §2, §3

[1] = test system: MB9798 (efflux+ MB5919 Trans IMP1 plasmid); assay: microbe, parasite or virus in culture; assay type: cell-based, Pseudomonas aeruginosa
Source text: as §1, §2, §3

[2] = test system: MB9799 (efflux- MB5890 Trans IMP1 plasmid); assay: microbe, parasite or virus in culture; assay type: cell-based, Pseudomonas aeruginosa
Source text: as §1, §2, §3

[3] = test system: MB9861 (Efflux+ MB5919 Trans pFlp-Vim1 plasmid); assay: microbe, parasite or virus in culture; assay type: cell-based, Pseudomonas aeruginosa
[4] = test system: MB9862 (efflux- MB5890 trans pFlp-Vim1); assay: microbe, parasite or virus in culture; assay type: cell-based, Pseudomonas aeruginosa
[5] = test system: efflux+ MB5919 Trans pFlp-Vim2 plasmid; assay: microbe, parasite or virus in culture; assay type: cell-based, Pseudomonas aeruginosa
[6] = test system: efflux- MB5890 Trans pFlp-Vim2 plasmid; assay: microbe, parasite or virus in culture; assay type: cell-based, Pseudomonas aeruginosa
NDM-1 = NDM-1 (Klebsiella pneumoniae, UniProt C7C422); assay: biochemical; assay type: biochemical; conditions: CCF2-FA fluorescence assay, 2 hours at 25° C.
Procedure, shortened: (§4)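 In 100 mM phosphate pH 7 containing Tween-20 and ZnSO4, NDM-1 (1 pM), IMP-1 (2 pM) or VIM-1 (30 pM) hydrolysed 1.25 μM CCF2-FA over 2 hours at 25° C with inhibitor present. Readout was 405/460 nm fluorescence.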

IMP-1 = IMP-1 (Serratia marcescens, UniProt P52699); assay: biochemical; conditions: CCF2-FA fluorescence assay, 2 hours at 25° C.; read-out: IMP1 IC50
Procedure, shortened: as §4

VIM-1 = VIM-1 (Pseudomonas aeruginosa (strain ATCC 15692 / DSM 22644 / CIP 104116 / JCM 14847 / LMG 12228 / 1C / PRS 101 / PAO1), UniProt A0A0F7KYQ8); assay: biochemical; conditions: CCF2-FA fluorescence assay, 2 hours at 25° C.; read-out: VIM1 IC50
Procedure, shortened: as §4

VIM-2 = VIM-2 (Escherichia coli, UniProt Q5U7L7); assay: biochemical; conditions: CCF2-FA fluorescence assay; read-out: VIM2 IC50
[7] = test system: Escherichia coli expressing NDM-1 (CLB30016); assay type: cell-based; conditions: with imipenem 1 μg/ml; 95% inhibition of bacterial growth
Procedure, shortened: (§5)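 Clinical MBL-producing strains were grown overnight at 35 °C on blood agar, suspended in saline, diluted 1:100 into 1.1× CAMHB and exposed to test compound with imipenem at 1 μg/ml. After 22–24 h at 35 °C, absorbance gave MITC95: lowest compound concentration inhibiting 95% of growth.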

[8] = test system: Klebsiella pneumoniae expressing VIM-1 (IHMA599644); assay type: cell-based; conditions: with imipenem 1 μg/ml; 95% inhibition of bacterial growth
Procedure, shortened: as §5

[9] = test system: Serratia marcescens expressing IMP-1 (CL5741); assay type: cell-based; conditions: with imipenem 1 μg/ml; 95% inhibition of bacterial growth
Procedure, shortened: as §5

[10] = test system: P. aeruginosa MB9798 (efflux+, IMP-1 plasmid); conditions: for MB9798 MITC95 P. aeruginosa uM Efflux WT: efflux + (MB9798) strain, imipenem at 2 μg/mL, in the presence of a class A, C, D serine β-lactamase inhibitor closely related to relebactam; for Efflux ratio: fold difference between efflux+ (MB9798) and efflux− (MB9799) strains
Procedure, shortened: (§6)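 Isogenic P. aeruginosa PAO1 strains (efflux+ and multiple-efflux-pump-disrupted) carrying plasmid IMP-1, with inducible AmpC, tested by broth microdilution. Imipenem and/or ceftazidime fixed, usually at CLSI breakpoint, plus fixed class A/C β-lactamase inhibitor; titrated MBL inhibitor concentration restoring susceptibility recorded and compared between strains as efflux fold difference.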

[11] = test system: P. aeruginosa MB9799 (efflux-, IMP-1 plasmid); assay type: cell-based, Pseudomonas aeruginosa; conditions: efflux − (MB9799) strain; imipenem at 2 μg/mL; in the presence of a class A, C, D serine β-lactamase inhibitor closely related to relebactam
Procedure, shortened: as §6

[12] = MB9798, OprD+, efflux+, MB5919 Trans IMP1 plasmid (CL 5673)
[13] = MB9799, OprD+, efflux−, MB5890 Trans IMP1 plasmid (CL 5673)
[14] = MB9861, OprD+, Efflux+, MB5919 Trans pFlp-Vim1 plasmid
[15] = MB9862, OprD+, efflux−, MB5890 trans pFlp-Vim1
[16] = OprD+, efflux+, MB5919 Trans pFlp-Vim2 plasmid
[17] = OprD+, efflux−, MB5890 Trans pFlp-Vim2 plasmid

Chain of NDM-1 (C7C422 whole entry, looked up, species assumed): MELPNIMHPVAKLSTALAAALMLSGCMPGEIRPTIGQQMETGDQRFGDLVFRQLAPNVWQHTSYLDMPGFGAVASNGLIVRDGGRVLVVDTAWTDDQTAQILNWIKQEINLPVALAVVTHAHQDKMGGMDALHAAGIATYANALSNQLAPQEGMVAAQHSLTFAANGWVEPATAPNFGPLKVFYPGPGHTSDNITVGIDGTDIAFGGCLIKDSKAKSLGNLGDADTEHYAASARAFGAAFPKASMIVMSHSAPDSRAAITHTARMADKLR
Chain of IMP-1 (P52699 whole entry, looked up, species assumed): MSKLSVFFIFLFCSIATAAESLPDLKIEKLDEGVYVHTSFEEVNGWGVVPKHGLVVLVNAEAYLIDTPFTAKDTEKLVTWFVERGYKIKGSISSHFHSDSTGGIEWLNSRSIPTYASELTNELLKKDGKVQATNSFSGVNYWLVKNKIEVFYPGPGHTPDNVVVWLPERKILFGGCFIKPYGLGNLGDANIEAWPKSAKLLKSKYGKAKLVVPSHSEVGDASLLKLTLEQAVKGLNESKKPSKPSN

Row | Structure (SMILES) | MIC (MB5890 (OprD+, efflux-); MB5890, OprD+, efflux−) | MIC (MB5919 (OprD+, efflux+); MB5919, OprD+, efflux+) | MIC [1, 12] | MIC [2, 13] | MIC [3, 14] | MIC [4, 15] | MIC [5, 16] | MIC [6, 17] | IC50 (NDM-1) | IC50 (IMP-1) | IC50 (VIM-1) | IC50 (VIM-2) | CLB30016 E. coli MITC95 NDM [7] | IHMA599644 K. pneumoniae MITC95 VIM [8] | CL5741 S. marcescens MITC95 IMP [9] | MB9798 MITC95 P. aeruginosa uM Efflux WT [10] | Efflux ratio [10] | MB9799 MITC95 P. aeruginosa uM Efflux Mutant [11] | also measured
1 | CC[C@H]1OC(=O)[C@H](C)[C@@H](O[C@H]2C[C@@](C)(OC)[C@@H](O)[C@H](C)O2)[C@H](C)[C@@H](O[C@@H]2O[C@H](C)C[C@H](N(C)C)[C@H]2O)[C@](C)(O)C[C@@H](C)CN(C)[C@H](C)[C@@H](O)[C@]1(C)O [Azithromycin] | – | – | – | – | – | – | – | – | – | – | – | – | – | – | – | – | – | – | MIC (MB5890 (OprD+, efflux-); Pseudomonas aeruginosa): 1 µg/mL (≈ 1.34 µM); MIC (MB5919 (OprD+, efflux+); Pseudomonas aeruginosa): 16 µg/mL (≈ 21.4 µM); MIC ([1]; Pseudomonas aeruginosa): 2 µg/mL (≈ 2.67 µM); MIC ([2]; Pseudomonas aeruginosa): 2 µg/mL (≈ 2.67 µM); MIC ([3]; Pseudomonas aeruginosa): 32 µg/mL (≈ 42.7 µM); MIC ([4]; Pseudomonas aeruginosa): 1 µg/mL (≈ 1.34 µM); MIC ([5]; Pseudomonas aeruginosa): 32 µg/mL (≈ 42.7 µM); MIC ([6]; Pseudomonas aeruginosa): 1 µg/mL (≈ 1.34 µM)
2 | CC(C)(O/N=C(\C(=O)N[C@@H]1C(=O)N2C(C(=O)[O-])=C(C[n+]3ccccc3)CS[C@H]12)c1csc(N)n1)C(=O)O [CAZ, ceftazidime] | 0.5 µg/mL (≈ 0.915 µM) | 1 µg/mL (≈ 1.83 µM) | 256 µg/mL (≈ 468 µM) | 256 µg/mL (≈ 468 µM) | >256 µg/mL | >256 µg/mL | 128 µg/mL (≈ 234 µM) | 64 µg/mL (≈ 117 µM) | – | – | – | – | – | – | – | – | – | – | –
3 | O=C(N[C@H](CO)[C@H](O)c1ccc([N+](=O)[O-])cc1)C(Cl)Cl [Chloramphenicol, chloramphenicol] | – | – | – | – | – | – | – | – | – | – | – | – | – | – | – | – | – | – | MIC (MB5890 (OprD+, efflux-); Pseudomonas aeruginosa): 1 µg/mL (≈ 3.09 µM); MIC (MB5919 (OprD+, efflux+); Pseudomonas aeruginosa): > 64 µg/mL; MIC ([1]; Pseudomonas aeruginosa): > 64 µg/mL; MIC ([2]; Pseudomonas aeruginosa): 1 µg/mL (≈ 3.09 µM); MIC ([3]; Pseudomonas aeruginosa): > 64 µg/mL; MIC ([4]; Pseudomonas aeruginosa): 2 µg/mL (≈ 6.19 µM); MIC ([5]; Pseudomonas aeruginosa): > 64 µg/mL; MIC ([6]; Pseudomonas aeruginosa): 1 µg/mL (≈ 3.09 µM)
4 | NCCNS(=O)(=O)C1CCN(c2ccc(S(=O)(=O)N[C@@H](CN)CO)c(S(N)(=O)=O)c2-c2nn[nH]n2)CC1 [Example 202, (S)-N1-(1-amino-3-hydroxypropan-2-yl)-4-(4-(N-(2-aminoethyl)sulfamoyl)piperidin-1-yl)-3-(2H-tetrazol-5-yl)benzene-1,2-disulfonamide] | – | – | – | – | – | – | – | – | 0.44 nM | 0.58 nM | 0.09 nM | 1.6 nM | 0.78 µM | 1.56 µM | 1.56 µM | 1.56 µM | 1.00 | 1.56 µM | –
5 | NCC=C1CCN(c2ccc(S(=O)(=O)NC[C@H](O)CN)c(S(N)(=O)=O)c2-c2nn[nH]n2)CC1 [Example 204, (R)—N1-(3-amino-2-hydroxypropyl)-4-(4-(2-aminoethylidene)piperidin-1-yl)-3-(2H-tetrazol-5-yl)benzene-1,2-disulfonamide] | – | – | – | – | – | – | – | – | 0.97 nM | 1.55 nM | 0.16 nM | 3.44 nM | 0.78 µM | 1.56 µM | 1.56 µM | 0.78 µM | 1.00 | 0.78 µM | –
6 | NC[C@@H](O)CNS(=O)(=O)c1ccc(N2CC[C@@H](N)[C@@H](F)C2)c(-c2nn[nH]n2)c1S(N)(=O)=O [Example 207, N1-((R)-3-amino-2-hydroxypropyl)-4-((3S,4R)-4-amino-3-fluoropiperidin-1-yl)-3-(2H-tetrazol-5-yl)benzene-1,2-disulfonamide] | – | – | – | – | – | – | – | – | 15 nM | 25.2 nM | 0.86 nM | 25.6 nM | 0.39 µM | 0.78 µM | 0.20 µM | 1.56 µM | 1.00 | 1.56 µM | –
7 | NCCOCC1CCN(c2ccc(S(=O)(=O)NC[C@H](O)CN)c(S(N)(=O)=O)c2-c2nn[nH]n2)CC1 [Example 208] | – | – | – | – | – | – | – | – | 1.05 nM | 1.84 nM | 0.11 nM | 1.19 nM | 1.56 µM | 3.13 µM | 0.78 µM | 0.78 µM | 1.00 | 0.78 µM | –
8 | NCCOC1CCN(c2ccc(S(=O)(=O)NC[C@H](O)CN)c(S(N)(=O)=O)c2-c2nn[nH]n2)CC1 [Example 209, (R)—N1-(3-amino-2-hydroxypropyl)-4-(4-(2-aminoethoxy)piperidin-1-yl)-3-(2H-tetrazol-5-yl)benzene-1,2-disulfonamide] | – | – | – | – | – | – | – | – | 0.96 nM | 1.69 nM | 0.12 nM | 3.32 nM | 0.78 µM | 1.56 µM | 1.56 µM | 0.78 µM | 1.00 | 0.78 µM | –
9 | C[C@@H](O)[C@H]1C(=O)N2C(C(=O)O)=C(SCCN=CN)C[C@H]12 [Imipenem, imipenem] | 2 µg/mL (≈ 6.68 µM) | 4 µg/mL (≈ 13.4 µM) | 64 µg/mL (≈ 214 µM) | 32 µg/mL (≈ 107 µM) | >64 µg/mL | 64 µg/mL (≈ 214 µM) | >64 µg/mL | 32 µg/mL (≈ 107 µM) | – | – | – | – | – | – | – | – | – | – | –
10 | C[C@@H](O)[C@H]1C(=O)N2C(C(=O)O)=C(S[C@@H]3CN[C@H](C(=O)N(C)C)C3)[C@H](C)[C@H]12 [Meropenem, meropenem] | 0.5 µg/mL (≈ 1.3 µM) | 2 µg/mL (≈ 5.22 µM) | >64 µg/mL | 64 µg/mL (≈ 167 µM) | >64 µg/mL | 64 µg/mL (≈ 167 µM) | >64 µg/mL | 32 µg/mL (≈ 83.4 µM) | – | – | – | – | – | – | – | – | – | – | –
11 | CCN1CCN(C(=O)N[C@@H](C(=O)N[C@@H]2C(=O)N3[C@@H]2SC(C)(C)[C@@H]3C(=O)O)c2ccccc2)C(=O)C1=O [Pipercillin, piperacillin] | 1 µg/mL (≈ 1.93 µM) | 2 µg/mL (≈ 3.86 µM) | 4 µg/mL (≈ 7.73 µM) | 4 µg/mL (≈ 7.73 µM) | >256 µg/mL | 128 µg/mL (≈ 247 µM) | >256 µg/mL | 128 µg/mL (≈ 247 µM) | – | – | – | – | – | – | – | – | – | – | –
12 | NC[C@@H](O)CNS(=O)(=O)c1ccc(NC2CCC(N)C2)c(-c2nn[nH]n2)c1S(N)(=O)=O (stereo partly drawn) [compound 184, N1-((R)-3-amino-2-hydroxypropyl)-4-((3-aminocyclopentyl)amino)-3-(2H-tetrazol-5-yl)benzene-1,2-disulfonamide] | – | – | – | – | – | – | – | – | 19.4 nM | 39.4 nM | 4.61 nM | 44.4 nM | 0.78 µM | 1.56 µM | 1.56 µM | 6.25 µM | 2.00 | 3.13 µM | –
